Experimental data: patent US20040070093A1, “Process for preparing microparticles through phase inversion phenomena” (Brown University Research Foundation, priority 1995, published 2004)

Test: in vivo
Conditions: rat, serum, po, 25 mg/kg
Experimental: Dicumarol containing microspheres were produced as described above in Example 2, subsection 1. Equal doses of dicumarol, spray dried dicumarol and polyanhydride (FA:SA) 20:80 encapsulated dicumarol (25 mg drug/kg body weight) suspended in 1.5 ml maple syrup were fed to catheterized rats (250-350 g). Blood samples were taken at regular intervals and serum was assayed for dicumarol concentrations using a UV spectrophotometric method.

AUC: 232 ± 19.2 µg·h/mL
Cmax: 17900 ± 1220 ng/mL
Tmax: 9.42 ± 1.36 h
half-life: 16.2 ± 0.87 h
Compound: O=c1oc2ccccc2c(O)c1Cc1c(O)c2ccccc2oc1=O [SPRAY DICUMAROL CONTROL, dicumarol]
